Source: patent US10316050B2, “PT (IV) complexes containing 4,4′-disubstituted-2,2′-bipyridyl and their use in cancer therapy” (THE BOARD OF REGENTS OF THE NEVADA SYSTEM OF HIGHER …, priority 2014, dated 2019)

Columns and labels:
DU145 cells = assay: Hoechst/PI staining, confocal microscopy, DU145; type: cell-based, human
Experimental: Cells (100,000 to 125,000) were seeded into 35 mm dishes and incubated for 48 hours at 37° C. The cells were treated with control, Pt(IV)-4C, or Pt(IV)-5C, and while in the dark, the cells were washed 2× with 1 mL PBS. After washing, 1 mL of a 2 μg/mL Hoechst 33342 and 10 μg/mL PI solution (in PBS) was added, and the cells were incubated for 15 minutes at room temperature. Images were acquired within 5 minutes with a Nikon A1R confocal laser scanning microscopy system (CLSM) mounted on a Nikon Eclipse Ti. At least three random areas on each dish were imaged.
Analysis of Hoechst (Ho) and PI staining by confocal microscopy also was performed to detect cell death. PI stains cells with membrane damage, whereas Ho stains both live and apoptotic cells (although apoptotic cells have more intense Ho fluorescence). […] Additionally, unlike A549, the PI positive cells in Pt(IV)-4C treated cells were higher than Pt(IV)-5C treated cells.

[1] = test system: cleaved-PARP in DU145 cells; assay: Flow cytometry of cleaved-PARP, DU145; type: cell-based, human; details: DU145, 10 μM Pt(IV)-4C or 2.5 μM Pt(IV)-5C for 2 hours, analyzed seven hours post treatment
Experimental: FIG. 12 is a series of histograms indicating Pt(IV)-4C and Pt(IV)-5C-induced cleavage of PARP in A549 cells (top panels) and in DU145 cells (bottom). A549 cells were treated for 5 hours with control (left), 25 μM Pt(IV)-4C (center), or 7.5 μM Pt(IV)-5C (right), and analyzed 12 hours post treatment. DU145 cells were treated for 2 hours with control (left), 10 μM Pt(IV)-4C (center), or 2.5 μM Pt(IV)-5C (right), and analyzed seven hours post treatment. Data are representative of three independent experiments.
Cells (200,000 to 250,000) were seeded in 60 mm dishes and incubated at 37° C. in a humidified, 5% CO2 atmosphere for 2 days to reach ˜50-60% confluence. The cells were treated with the platinum complexes as indicated, the floating cells were collected, and both attached and floating cells were washed 2× with PBS. The cells were resuspended in fresh medium and incubated as indicated. After incubation, both the floating and attached cells were collected and fixed by incubation in 4% formaldehyde for 10 minutes at room temperature. The fixed cells were pelleted and permeabilized by incubation in 500 μL of ice-cold methanol at 4° C. for 10 minutes. The samples were stored at −20° C. until analysis. For analysis, the cells were pelleted and washed 2× with 1% BSA in PBS. […] After washing 2× with 1% BSA, the cells were resuspended in PBS and analyzed on a Becton Dickinson FACS Calibur. […]

A549 cells = assay: Cell cycle analysis, propidium iodide flow cytometry, A549; type: cell-based, human; details: A549, 25 μM Pt(IV)-4C or 7.5 μM Pt(IV)-5C for 5 hours, analyzed 12 hours post treatment
Experimental: FIG. 10 is a series of plots from a cell cycle analysis of A549 cells (top) and DU145 cells (bottom) cells treated with Pt(IV)-4C and Pt(IV)-5C. A549 cells were treated for 5 hours with control (left), 25 μM Pt(IV)-4C (center), or 7.5 μM Pt(IV)-5C (right), and analyzed 12 hours post treatment. DU145 cells were treated for 1 hour with control (left), 10 μM Pt(IV)-4C (center), or 2.5 μM Pt(IV)-5C (right), and analyzed 12 hours post treatment. Data are representative of three independent experiments.
Cells (˜50 to 60% confluent in 60 mm dishes) were treated as indicated with the platinum compound. After treatment, the floating cells were collected, and both attached and floating cells were washed 2× with PBS. The cells were resuspended in fresh medium and incubated as indicated. The cells were harvested (both the floating and attached cells were collected), counted, and pelleted. The cells were then washed two times with 5 mL PBS, fixed by resuspending in 0.1 mL of PBS and 1 mL of ice-cold 95% ethanol with gentle vortexing. Fixed cells were stored at 4° C. until analysis. For analysis, fixed cells were washed once with 1-2 mL of PBS and centrifuged at 500×g for 5 minutes. The cell pellet was resuspended in 100 μL of a 1.0% Triton X-100 buffer solution, and 100 μL of a 1.0 mg/mL RNAse solution was added and allowed to stand at room temperature for 10-15 minutes. […]

[2] = Solubility in water and culture medium; type: physicochemical; details: stock DMSO solution diluted in the culture medium
Experimental: It should be noted that while the solubility of the Pt(IV) complexes in organic solvents were increased compared to their Pt(II) precursors, they were still poorly soluble in water. Thus, Pt(IV)-1C to Pt(IV)-3C were limited to a highest concentration of 100 μM. […] Testing of Pt(IV)4C therefore was limited to 25 μM.

Compound	Hoechst and PI staining compared to control (DU145 cells)	fold increase of cleaved-PARP [1] [fold]	effect on the cell cycle / sub-G1 peak (A549 cells)	concentration at which the complex precipitated out of solution [2] [µM]
CC(=O)[O][Pt]([Cl])([Cl])[O]C(C)=O.CCCCCOc1ccnc(-c2cc(OCCCCC)ccn2)c1 [Pt(IV)-5C, [Pt(IV)Cl2(OAc)2(4,4′-dipentoxy-2,2′-bipyridine)]]	more PI positive staining than Ho staining	~2	decreased percentage of cells in the G1 phase and a corresponding increase in the sub-G1 peak	
[Pt(IV)Cl2(OAc)2(4,4′-dibutoxy-2,2′-bipyridine)] [Pt(IV)-4C]		~2	decreased percentage of cells in the G1 phase and a corresponding increase in the sub-G1 peak	≥ 30
